# Reference: ChEMBL document CHEMBL1138234, “Planarity and constraint of the carbonyl groups in 1,2-diones are determinants for selective inhibition of human carboxylesterase 1” (J Med Chem, 2007)
# pKi: −log10 of the molar value.
# How the values were obtained:
# Cholinesterase = Cholinesterase (Homo sapiens, UniProt P06276); test: Inhibition of human butyrylcholinesterase
# Liver carboxylesterase 1 = biological target: T1, Liver carboxylesterase 1 (Homo sapiens, UniProt P23141); test: Inhibition of human carboxylesterase 1
# T1 sequence (P23141 whole entry): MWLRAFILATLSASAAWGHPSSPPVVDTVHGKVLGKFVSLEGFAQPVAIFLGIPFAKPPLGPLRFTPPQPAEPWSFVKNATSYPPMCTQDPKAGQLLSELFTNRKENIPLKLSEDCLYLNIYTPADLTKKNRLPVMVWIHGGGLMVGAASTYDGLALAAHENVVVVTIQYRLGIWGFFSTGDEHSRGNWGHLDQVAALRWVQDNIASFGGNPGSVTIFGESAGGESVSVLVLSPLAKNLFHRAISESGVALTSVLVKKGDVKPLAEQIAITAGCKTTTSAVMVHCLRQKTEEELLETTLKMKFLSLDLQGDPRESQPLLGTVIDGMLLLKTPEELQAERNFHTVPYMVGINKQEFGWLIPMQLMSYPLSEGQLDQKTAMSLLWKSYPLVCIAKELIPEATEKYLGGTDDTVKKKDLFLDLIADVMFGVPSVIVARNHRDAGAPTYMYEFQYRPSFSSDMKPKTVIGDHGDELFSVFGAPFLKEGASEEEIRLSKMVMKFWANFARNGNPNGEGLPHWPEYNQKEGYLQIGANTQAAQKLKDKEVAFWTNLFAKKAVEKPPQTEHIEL
# Acetylcholinesterase = Acetylcholinesterase (Homo sapiens, UniProt P22303); test: Inhibition of human acetylcholinesterase 1
# [1] = Inhibition of human intestinal carboxylesterase
# Chain of Cholinesterase (P06276 whole entry): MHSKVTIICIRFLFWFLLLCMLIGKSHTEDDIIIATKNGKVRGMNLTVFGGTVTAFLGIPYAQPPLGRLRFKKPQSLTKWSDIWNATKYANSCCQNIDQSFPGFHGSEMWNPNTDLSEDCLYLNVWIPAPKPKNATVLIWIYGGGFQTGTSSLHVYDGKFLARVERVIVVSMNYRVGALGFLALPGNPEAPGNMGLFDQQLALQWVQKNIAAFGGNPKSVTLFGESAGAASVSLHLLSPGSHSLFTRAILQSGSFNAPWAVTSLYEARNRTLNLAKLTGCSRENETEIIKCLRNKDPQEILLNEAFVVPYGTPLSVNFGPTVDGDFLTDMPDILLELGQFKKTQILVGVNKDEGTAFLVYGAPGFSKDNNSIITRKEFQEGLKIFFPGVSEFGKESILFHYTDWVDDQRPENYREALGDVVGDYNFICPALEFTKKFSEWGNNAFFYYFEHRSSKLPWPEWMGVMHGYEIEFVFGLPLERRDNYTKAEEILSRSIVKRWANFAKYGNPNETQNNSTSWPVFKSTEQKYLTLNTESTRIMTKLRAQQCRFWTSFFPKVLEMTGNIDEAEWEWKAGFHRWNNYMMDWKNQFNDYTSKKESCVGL
# Chain of Acetylcholinesterase (P22303 whole entry): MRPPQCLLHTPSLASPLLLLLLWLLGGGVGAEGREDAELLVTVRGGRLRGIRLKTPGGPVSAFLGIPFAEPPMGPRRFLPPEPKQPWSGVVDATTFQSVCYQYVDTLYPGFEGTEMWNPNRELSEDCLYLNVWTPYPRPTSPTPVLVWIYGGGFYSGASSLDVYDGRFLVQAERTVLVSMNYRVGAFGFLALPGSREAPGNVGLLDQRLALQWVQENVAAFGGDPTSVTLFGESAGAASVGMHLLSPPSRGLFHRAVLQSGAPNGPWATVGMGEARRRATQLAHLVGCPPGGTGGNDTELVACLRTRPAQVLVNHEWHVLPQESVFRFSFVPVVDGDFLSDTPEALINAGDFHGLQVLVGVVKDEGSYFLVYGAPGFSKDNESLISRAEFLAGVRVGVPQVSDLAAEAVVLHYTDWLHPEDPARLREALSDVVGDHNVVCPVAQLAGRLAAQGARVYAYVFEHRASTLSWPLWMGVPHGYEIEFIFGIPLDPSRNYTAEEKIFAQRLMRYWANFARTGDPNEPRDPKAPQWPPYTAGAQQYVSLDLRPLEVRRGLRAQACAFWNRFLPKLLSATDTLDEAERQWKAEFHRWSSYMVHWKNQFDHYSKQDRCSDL
Compound,pKi (Cholinesterase),pKi (Liver carboxylesterase 1),pKi (Acetylcholinesterase),pKi [1]
O=C(C(=O)C1CCCCC1)C1CCCCC1,< 4.00,7.14,< 4.00,8.30
O=C1Cc2ccccc2C1=O,5.58,5.28,< 4.00,5.26
O=C1C(=O)c2ccc([N+](=O)[O-])c3c([N+](=O)[O-])ccc1c23,5.51,6.24,6.04,6.21
O=C1C(=O)c2cccc3c2N(CCC3)C1=O,< 4.00,5.27,< 4.00,< 4.00
COc1ccccc1C(=O)C(=O)c1ccccc1OC,< 4.00,< 4.00,–,< 4.00
O=C1C(=O)c2c3ccccc3cc3cccc1c23,< 4.00,8.82,< 4.00,8.11
O=C1C(=O)c2cccnc2-c2ncccc21,< 4.00,5.27,< 4.00,< 4.00
COc1ccc(C(=O)C(=O)c2ccc(C(=O)O)cc2)cc1,< 4.00,–,< 4.00,–
O=C1C(=O)c2ccccc2CCc2ccccc21,< 4.00,5.53,< 4.00,5.21
CCOc1ccc(C(=O)C(=O)c2ccc(OCC)cc2)cc1,< 4.00,< 4.00,< 4.00,5.85
O=C(C(=O)c1ccc([N+](=O)[O-])cc1)c1ccc([N+](=O)[O-])cc1,< 4.00,5.01,< 4.00,6.33
Cc1cc(C)c(C(=O)C(=O)c2c(C)cc(C)cc2C)c(C)c1,< 4.00,< 4.00,< 4.00,5.39
O=C1C(=O)N2CCCc3cccc1c32,< 4.00,5.81,< 4.00,5.38
O=C1C(=O)c2sccc2-c2ccsc21,< 4.00,6.82,< 4.00,6.07
O=C1C(=O)c2cc([N+](=O)[O-])ccc2-c2ccccc21,5.78,7.80,6.07,6.97
CC1(C)[C@@H]2CC[C@]1(C)C(=O)C2=O (racemic),< 4.00,< 4.00,< 4.00,< 4.00
"O=C1C=Cc2ccccc2C1=O [1,2-NAPHTHOQUINONE]",5.64,6.03,6.49,5.62
"O=C1C(=O)c2ccccc2-c2ccccc21 [9,10-PHENANTHRENEQUINONE]",6.72,8.60,< 4.00,–
O=C1C(=O)c2cccc3cccc1c23 [ACENAPHTHOQUINONE],5.53,7.51,< 4.00,–
